Test results from ChEMBL document CHEMBL3392979, “Discovery and SAR study of c-Met kinase inhibitors bearing an 3-amino-benzo[d]isoxazole or 3-aminoindazole scaffold” (Bioorg Med Chem, 2015).

Columns and labels:
[1] = biological target: T1, Hepatocyte growth factor receptor (Homo sapiens, UniProt P08581); assay: Inhibition of purified recombinant c-MET (unknown origin) using poly (Glu, Tyr) substrate after 60 mins by ELISA
[2] = Antiproliferative activity against human EBC1 cells after 72 hrs; settings: EBC-1, 72 h
[3] = biological target: Receptor tyrosine-protein kinase erbB-4 (Homo sapiens) (UniProt Q15303); assay: Inhibition of purified ErbB4 (unknown origin) at 1 uM after 60 mins by ELISA
[4] = biological target: T1, Hepatocyte growth factor receptor; assay: Inhibition of purified c-MET (unknown origin) at 0.01 uM after 60 mins by ELISA
[5] = biological target: T2, Vascular endothelial growth factor receptor 2 (Homo sapiens, UniProt P35968); assay: Inhibition of purified VEGFR2 (unknown origin) at 0.1 uM after 60 mins by ELISA
[6] = biological target: Tyrosine-protein kinase ABL1 (Homo sapiens) (UniProt P00519); assay: Inhibition of purified ABL (unknown origin) at 1 uM after 60 mins by ELISA
[7] = biological target: Platelet-derived growth factor receptor alpha (Homo sapiens) (UniProt P16234); assay: Inhibition of purified PDGFRalpha (unknown origin) at 1 uM after 60 mins by ELISA
[8] = biological target: ALK tyrosine kinase receptor (Homo sapiens) (UniProt Q9UM73); assay: Inhibition of purified ALK (unknown origin) at 1 uM after 60 mins by ELISA
[9] = biological target: T1, Hepatocyte growth factor receptor; assay: Inhibition of purified c-MET (unknown origin) at 1 uM after 60 mins by ELISA
[10] = biological target: T2, Vascular endothelial growth factor receptor 2; assay: Inhibition of purified VEGFR2 (unknown origin) at 0.01 uM after 60 mins by ELISA
[11] = biological target: Fibroblast growth factor receptor 1 (Homo sapiens) (UniProt P11362); assay: Inhibition of purified FGFR1 (unknown origin) at 1 uM after 60 mins by ELISA
[12] = biological target: Receptor tyrosine-protein kinase erbB-2 (Homo sapiens) (UniProt P04626); assay: Inhibition of purified ErbB2 (unknown origin) at 1 uM after 60 mins by ELISA
[13] = biological target: T1, Hepatocyte growth factor receptor; assay: Inhibition of purified c-MET (unknown origin) at 0.1 uM after 60 mins by ELISA
[14] = biological target: Proto-oncogene tyrosine-protein kinase receptor Ret (Homo sapiens) (UniProt P07949); assay: Inhibition of purified RET (unknown origin) at 1 uM after 60 mins by ELISA
[15] = biological target: Insulin-like growth factor 1 receptor (Homo sapiens) (UniProt P08069); assay: Inhibition of purified IGF1R (unknown origin) at 1 uM after 60 mins by ELISA
[16] = biological target: T2, Vascular endothelial growth factor receptor 2; assay: Inhibition of purified VEGFR2 (unknown origin) at 1 uM after 60 mins by ELISA
[17] = biological target: Epidermal growth factor receptor (Homo sapiens) (UniProt P00533); assay: Inhibition of purified EGFR (unknown origin) at 1 uM after 60 mins by ELISA
[18] = biological target: Ephrin type-A receptor 2 (Homo sapiens) (UniProt P29317); assay: Inhibition of purified EPH-A2 (unknown origin) at 1 uM after 60 mins by ELISA
[19] = biological target: Platelet-derived growth factor receptor beta (Homo sapiens) (UniProt P09619); assay: Inhibition of purified PDGFRbeta (unknown origin) at 1 uM after 60 mins by ELISA
[20] = biological target: ALK tyrosine kinase receptor (Homo sapiens) (UniProt Q9UM73); assay: Inhibition of purified ALK (unknown origin) at 0.1 uM after 60 mins by ELISA
[21] = biological target: Vascular endothelial growth factor receptor 1 (Homo sapiens) (UniProt P17948); assay: Inhibition of purified Flt1 (unknown origin) at 1 uM after 60 mins by ELISA
[22] = biological target: Proto-oncogene tyrosine-protein kinase Src (Homo sapiens) (UniProt P12931); assay: Inhibition of purified c-Src (unknown origin) at 1 uM after 60 mins by ELISA
[23] = biological target: T2, Vascular endothelial growth factor receptor 2; assay: Inhibition of purified VEGFR2 (unknown origin) after 60 mins by ELISA

IC50 [1] [nM] | SMILES | IC50 [2] [nM] | further results
> 1000 | Cn1nccc1-c1ccc(NC(=O)C2(C(=O)Nc3ccc(-c4cccc5onc(N)c45)cc3)CC2)cc1 |  | 
> 1000 | CN(C)Cc1cc(NC(=O)C2(C(=O)Nc3ccc(F)cc3)CC2)ccc1-c1cccc2[nH]nc(N)c12 |  | 
> 1000 | Nc1noc2cccc(-c3ccc(NC(=O)C4(C(=O)Nc5ccc(-c6cnn(C7CCOCC7)c6)cc5)CC4)cc3)c12 |  | 
> 1000 | CC(C)C(C(=O)Nc1ccc(F)cc1)C(=O)Nc1ccc(-c2cccc3onc(N)c23)cc1 (stereo unspecified) |  | 
> 1000 | Nc1noc2cccc(-c3ccc(NC(=O)C4(C(=O)Nc5ccc(-c6cnn(C7CCNCC7)c6)cc5)CC4)cc3)c12 |  | 
 | Nc1noc2cccc(-c3ccc(NC(=O)C4(C(=O)Nc5ccc(F)cc5F)CC4)cc3)c12 | > 10000 | 
1.8 | Nc1n[nH]c2cccc(-c3ccc(NC(=O)C4(C(=O)Nc5ccc(F)cc5)CC4)cc3F)c12 | 180 | inhibition [3]: 3%; inhibition [4]: 69.7%; inhibition [5]: 89.9%; inhibition [6]: 9.8%; inhibition [7]: 62.5%; inhibition [8]: 64.9%; inhibition [9]: 100%; inhibition [10]: 45.8%; inhibition [11]: 21.5%; inhibition [12]: 0%; inhibition [13]: 100%; inhibition [14]: 66.1%; inhibition [15]: 45.3%; inhibition [16]: 100%; inhibition [17]: 2.5%; inhibition [18]: 38.4%; inhibition [19]: 59.3%; inhibition [20]: 36.2%; inhibition [21]: 40.8%; inhibition [22]: 11.8%
 | C[C@@H](Oc1cc(-c2cnn(C3CCNCC3)c2)cnc1N)c1c(Cl)ccc(F)c1Cl [CRIZOTINIB] | 21 | 
 | Cc1ccc(NC(=O)C2(C(=O)Nc3ccc(-c4cccc5onc(N)c45)cc3)CC2)cc1 | 6300 | 
> 1000 | CN1CCN(c2ccc(NC(=O)C3(C(=O)Nc4ccc(-c5cccc6onc(N)c56)cc4)CC3)cc2F)CC1 |  | 
> 1000 | COc1cc(NC(=O)C2(C(=O)Nc3ccc(F)cc3)CC2)ccc1-c1cccc2[nH]nc(N)c12 |  | 
 | Nc1noc2cccc(-c3ccc(NC(=O)C4(C(=O)Nc5ccc(Cl)cc5)CC4)cc3)c12 | 6700 | 
 | Nc1n[nH]c2cccc(-c3ccc(NC(=O)C4(C(=O)Nc5ccc(F)cc5)CC4)c(F)c3)c12 | 510 | 
 | Nc1noc2cccc(-c3ccc(NC(=O)C4(C(=O)Nc5ccc(F)c(F)c5)CC4)cc3)c12 | > 10000 | 
 | Cc1cc(NC(=O)C2(C(=O)Nc3ccc(F)cc3)CC2)ccc1-c1cccc2[nH]nc(N)c12 | 1000 | 
 | Nc1noc2cccc(-c3ccc(NC(=O)CC(=O)Nc4ccc(F)cc4)cc3)c12 | > 10000 | 
 | Nc1n[nH]c2cccc(-c3ccc(NC(=O)C4(C(=O)Nc5ccc(F)cc5F)CC4)cc3)c12 | 990 | 
 | CN1CCN(Cc2cc(NC(=O)C3(C(=O)Nc4ccc(-c5cccc6[nH]nc(N)c56)cc4)CC3)ccc2Cl)CC1 | > 10000 | 
> 1000 | CC(=O)c1ccc(-c2ccc(NC(=O)C3(C(=O)Nc4ccc(-c5cccc6onc(N)c56)cc4)CC3)cc2)s1 |  | 
> 1000 | Cn1cc(-c2ccc(NC(=O)C3(C(=O)Nc4ccc(-c5cccc6onc(N)c56)cc4)CC3)cc2)cn1 |  | 
 | Nc1noc2cccc(-c3ccc(NC(=O)C4(C(=O)Nc5ccc(F)cc5)CC4)cc3F)c12 | 900 | 
> 1000 | Nc1n[nH]c2cccc(-c3ccc(NC(=O)C4(C(=O)Nc5ccc(F)cc5)CC4)c4ccccc34)c12 |  | 
 | Nc1noc2cccc(-c3ccc(NC(=O)C4(C(=O)Nc5ccc(F)cc5)CC4)cc3)c12 | 1200 | IC50 [23]: > 1000 nM
> 1000 | COc1cc(NC(=O)C2(C(=O)Nc3ccc(-c4cccc5onc(N)c45)cc3)CC2)cc(OC)c1OC |  | 
 | Cc1ccc(NC(=O)C2(C(=O)Nc3ccc(-c4cccc5[nH]nc(N)c45)c(F)c3)CC2)cc1 | 910 | 
 | Nc1n[nH]c2cccc(-c3ccc(NC(=O)C4(C(=O)Nc5ccc(Cl)cc5)CC4)cc3F)c12 | 990 | 
 | Nc1n[nH]c2cccc(-c3ccc(NC(=O)C4(C(=O)Nc5ccc(F)cc5)CC4)cc3)c12 | 820 | 
> 1000 | Nc1noc2cccc(-c3ccc(NC(=O)C4(C(=O)Nc5cccc(F)c5)CC4)cc3)c12 |  | 
> 1000 | CC(C)(C(=O)Nc1ccc(F)cc1)C(=O)Nc1ccc(-c2cccc3onc(N)c23)cc1 |  | 
